Tests used:
[1] = tested on: synaptosomes from the striatal area of rat brain (dopamine release); assay: [3H]-dopamine release from striatal synaptosomes of rat brain; format: cell-based, rat (Sprague-Dawley); conditions: evaluated as described in Example 1
Experimental: Dopamine release was measured by preparing synaptosomes from the striatal area of rat brain generally obtained from Sprague-Dawley rats according to the procedures set forth by Nagy, et al., J. Neurochem., Vol. 43, pp. 1114-1123 (1984). Striata from 4 rats were homogenized in 2 ml of 0.32M sucrose buffered with 5 mM HEPES (pH 7.5), using a glass-teflon tissue grinder. The homogenate was diluted to 5 ml with additional homogenization solution and centrifuged at 1000×g for 10 min. This procedure was repeated on the new pellet and the resulting supernatant was centrifuged at 12,000×g for 20 min. […] Using this method, 30 to 90 percent of the dopamine was taken up into the synaptosomes, as determined by scintillation counting following filtration through glass fiber filters soaked with 0.5 percent polyethyleneimine. […] After the addition of a 0.2 ml of a 20 μM solution of ligand, the perfusate was collected into scintillation vials at 1 min. intervals and the dopamine released was quantified by scintillation counting. Peaks of radioactivity released above background were summed and the average basal release during that time was subtracted from the total. Release was expressed as a percentage of release obtained with an equal concentration of (S)-(-)-nicotine.

[2] = biological target: nicotinic cholinergic receptors; assay: Inhibition of L-[3H]nicotine binding to mouse brain membranes; set-up: species or system mouse (DBA strain); conditions: racemic mixture of ligand, 10 nM L-[3H]nicotine, 2 hr, 4° C.
Experimental: Mice (DBA strain) were maintained on a 12 hour light/dark cycle and were allowed free access to water and food supplied by Wayne Lab Blox, Madison, Wis. Animals used in the present studies were 60 to 90 days of age and weighed 20 to 25 g. Brain membrane preparations were obtained from pooled brain tissue of both males and females.
Mice were killed by cervical dislocation. Brains were removed and placed on an ice-cold platform. […] Protein was determined by the method of Lowry, et al., J. Biol. Chem., Vol. 193, pp. 265-275 (1951), using bovine serum albumin as the standard.
The binding of L-[^3 H]nicotine was measured using a modification of the method of Romano, et al., Science, Vol. 210, pp. 647-650 (1980) as described previously by Marks, et al., Mol. Pharmacol., Vol. 30, pp. 427-436 (1986). The binding of L-[^3 H]nicotine was measured using a 2 hr. incubation at 4° C. […] Nonspecific binding was determined by inclusion of 10 μM nonradioactive nicotine in the incubations. The inhibition of L-[^3 H]nicotine binding by test compounds was determined by including one of eight different concentrations of the test compound in the incubation. […] Inhibition constants (Ki values) were calculated from the IC50 values using the method of Cheng, et al., Biochem. Pharmacol., Vol. 22, pp. 3099-3108 (1973). […]

[3] = tested on: nicotinic cholinergic receptors; conditions: chronic administration to animals; cited from earlier work
[4] = in vivo; cited from earlier work
[5] = tested on: nicotinic cholinergic receptors; conditions: acute administration; cited from earlier work
[6] = tested on: acetylcholine release in brain tissue; conditions: direct action; cited from earlier work

CC(=O)C1=C(C)CC2CCC1N2 (stereo not drawn) [Example 2, 2-acetyl-3-methyl-8-azabicyclo[3.2.1]oct-2-ene]
dopamine release (in words) [1]: found to provide dopamine release

CC(=O)C1=C(C)CC2CCC1N2C (stereo not drawn) [Example 3, 2-acetyl-3,8-dimethyl-8-azabicyclo[3.2.1]oct-2-ene]
dopamine release (in words) [1]: found to provide dopamine release

CC(=O)C1=CCC2CCC1N2C (stereo not drawn) [Ferruginine, ferruginine]
Ki [2]: 3100 ± 500 nM

CC(=O)C1=CCC2CCC1N2 (stereo not drawn) [Norferruginine, norferruginine]
Ki [2]: 1100 ± 300 nM

CN1CCCC1c1cccnc1 (stereo not drawn) [nicotine]
number of nicotinic cholinergic receptors [3]: elicit an increase in the number of such receptors | attention [4]: enhance attention | cognitive functions [4]: improve cognitive functions | activation of nicotinic cholinergic receptors [5]: suggested to possess an ability to activate nicotinic cholinergic receptors | release of acetylcholine in brain tissue [6]: elicit the release of acetylcholine in brain tissue

— patent publication US5227385A, “Method for treatment of neurodegenerative diseases” (priority 1992, dated 1993)
